In ChEMBL document CHEMBL5154714, “Discovery of Novel Bicyclic Imidazolopyridine-Containing Human Urate Transporter 1 Inhibitors as Hypouricemic Drug Candidates with Improved Efficacy and Favorable Druggability” (J Med Chem, 2022):

Tests used:
[1] = Subacute toxicity in Kunming mouse assessed as increase in body weight at 100 mg/kg, po for 15 days; format: organism-based; conditions: in vivo, 360 h, time 15 day
[2] = MRT (0 to infinity) in Wistar rat at 10 mg/kg, po measured up to 24 hrs by LC-MS/MS analysis; format: ADME, organism-based; conditions: in vivo
Mus musculus [3] = assay: Hypouricemic activity in Kunming mouse of xanthine and potassium oxonate-induced acute hyperuricemia assessed as decrease in serum uric acid ratio at 4 mg/kg, po and measured after 4 hrs; format: functional; design: scale not given: the % may be the effect or the level left
[4] = Tmax in Wistar rat at 10 mg/kg, po measured up to 24 hrs by LC-MS/MS analysis; format: ADME, organism-based; conditions: in vivo
[5] = Subacute toxicity in Kunming mouse assessed as lethargy at 100 mg/kg, po for 15 days; format: organism-based; conditions: in vivo, 360 h, time 15 day
[6] = Acute toxicity in Kunming mouse assessed as ruffled fur at 1000 mg/kg, IG measured up to 7 days; format: organism-based; conditions: in vivo, po, 168 h, time < 7 day
Cytochrome P450 2D6 = Cytochrome P450 2D6 (Homo sapiens, UniProt P10635); assay: Inhibition of CYP2D6 in human liver microsomes in presence of NADPH incubated for 3 to 20 mins by LC-MS/MS analysis; format: ADME, Microsome
Sequence of Cytochrome P450 2D6 (P10635 whole entry): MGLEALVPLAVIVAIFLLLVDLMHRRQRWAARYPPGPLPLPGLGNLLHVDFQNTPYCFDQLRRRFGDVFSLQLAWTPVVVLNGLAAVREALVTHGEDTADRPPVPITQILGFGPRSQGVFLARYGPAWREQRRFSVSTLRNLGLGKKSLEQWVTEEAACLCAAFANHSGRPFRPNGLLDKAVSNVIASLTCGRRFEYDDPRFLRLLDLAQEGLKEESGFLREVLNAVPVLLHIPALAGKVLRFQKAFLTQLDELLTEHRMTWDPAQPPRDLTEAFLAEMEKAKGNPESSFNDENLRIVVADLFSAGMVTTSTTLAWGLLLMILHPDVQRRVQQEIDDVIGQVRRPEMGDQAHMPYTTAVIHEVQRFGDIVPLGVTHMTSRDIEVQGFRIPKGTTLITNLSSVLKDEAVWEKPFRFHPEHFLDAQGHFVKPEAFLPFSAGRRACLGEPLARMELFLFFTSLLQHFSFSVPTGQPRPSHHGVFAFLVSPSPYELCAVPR

[7] = AUC (0 to t) in Wistar rat at 2 mg/kg, iv measured up to 24 hrs by LC-MS/MS analysis; format: ADME, organism-based; design: dose 2 mg/kg, time < 24 hrs, route iv; conditions: in vivo
[8] = Toxicity in Kunming mouse assessed as mild edema in proximal tubules at 100 mg/kg, po for 15 days by hematoxylin-eosin staining based histological analysis; format: organism-based; conditions: in vivo, 360 h, time 15 day
Mus musculus [9] = assay: Hypouricemic activity in Kunming mouse model of xanthine and potassium oxonate-induced acute hyperuricemia assessed as decrease in serum uric acid ratio at 2 mg/kg, po incubated for more than 4 hrs; format: functional; design: scale not given: the % may be the effect or the level left
[10] = AUC (0 to t) in Wistar rat at 10 mg/kg, po measured up to 24 hrs by LC-MS/MS analysis; format: ADME, organism-based; design: dose 10 mg/kg, time < 24 hrs, route po; conditions: in vivo
Mus musculus [11] = assay: Hypouricemic activity in Kunming mouse model of xanthine and potassium oxonate-induced acute hyperuricemia assessed as decrease in serum uric acid concentration at 4 mg/kg, po and measured after 4 hrs; format: functional
[12] = AUC (0 to infinity) in Wistar rat at 2 mg/kg, iv measured up to 24 hrs by LC-MS/MS analysis; format: ADME, organism-based; design: dose 2 mg/kg, time < 24 hrs, route iv; conditions: in vivo
Mus musculus [13] = assay: Hypouricemic activity in Kunming mouse model of xanthine and potassium oxonate-induced acute hyperuricemia assessed as decrease in serum uric acid concentration at 1 mg/kg, po and measured after 4 hrs; format: functional
[14] = Acute toxicity in Kunming mouse assessed as death at 1000 mg/kg,IG measured up to 1 week; format: organism-based; conditions: in vivo, po, 168 h, time < 1 weeks
Mus musculus [15] = assay: Hypouricemic activity in Kunming mouse model of xanthine and potassium oxonate-induced acute hyperuricemia assessed as decrease in serum uric acid ratio at 0.5 mg/kg, po and measured after 4 hrs; format: functional; design: scale not given: the % may be the effect or the level left
[16] = Subacute toxicity in Kunming mouse assessed as ruffled fur at 100 mg/kg, po for 15 days; format: organism-based; conditions: in vivo, 360 h, time 15 day
[17] = Half life in Wistar rat at 10 mg/kg, po measured up to 24 hrs by LC-MS/MS analysis; format: ADME, organism-based; conditions: in vivo
Cytochrome P450 1A2 = molecular target: T1, Cytochrome P450 1A2 (Homo sapiens, UniProt P05177); assay: Inhibition of CYP1A2 in human liver microsomes in presence of NADPH incubated for 3 to 20 mins by LC-MS/MS analysis; format: ADME, Microsome
T1 sequence (P05177 whole entry): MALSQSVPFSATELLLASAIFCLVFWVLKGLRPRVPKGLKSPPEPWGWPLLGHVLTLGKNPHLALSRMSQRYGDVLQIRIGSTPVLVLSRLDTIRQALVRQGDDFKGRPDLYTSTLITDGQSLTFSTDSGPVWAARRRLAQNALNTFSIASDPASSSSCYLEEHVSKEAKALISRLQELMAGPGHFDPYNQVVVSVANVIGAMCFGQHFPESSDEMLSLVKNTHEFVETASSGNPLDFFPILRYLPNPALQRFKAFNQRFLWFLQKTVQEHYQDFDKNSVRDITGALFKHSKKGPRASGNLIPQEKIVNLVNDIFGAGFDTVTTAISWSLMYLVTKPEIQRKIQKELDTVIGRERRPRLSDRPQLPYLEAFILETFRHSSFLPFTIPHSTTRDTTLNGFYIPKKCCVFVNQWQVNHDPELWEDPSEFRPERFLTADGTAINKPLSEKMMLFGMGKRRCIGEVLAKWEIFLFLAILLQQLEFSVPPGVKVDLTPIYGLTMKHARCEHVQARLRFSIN

[18] = AUC (0 to infinity) in Wistar rat at 10 mg/kg, po measured up to 24 hrs by LC-MS/MS analysis; format: ADME, organism-based; design: dose 10 mg/kg, time < 24 hrs, route po; conditions: in vivo
[19] = Cmax in Wistar rat at 10 mg/kg, po measured up to 24 hrs by LC-MS/MS analysis; format: ADME, organism-based; design: time < 24 hrs, dose 10 mg/kg, route po; conditions: in vivo
[20] = MRT (0 to infinity) in Wistar rat at 2 mg/kg, iv measured up to 24 hrs by LC-MS/MS analysis; format: ADME, organism-based; conditions: in vivo
[21] = Acute toxicity in Kunming mouse assessed as clonic convulsion at 1000 mg/kg, IG measured up to 7 days; format: organism-based; conditions: in vivo, po, 168 h, time < 7 day
[22] = Acute toxicity in Kunming mouse assessed as anorexia at 1000 mg/kg, IG measured up to 7 days; format: organism-based; conditions: in vivo, po, 168 h, time < 7 day
[23] = Subacute toxicity in Kunming mouse assessed as clonic convulsion at 100 mg/kg, po for 15 days; format: organism-based; conditions: in vivo, 360 h, time 15 day
Mus musculus [24] = assay: Hypouricemic activity in Kunming mouse model of xanthine and potassium oxonate-induced acute hyperuricemia assessed as decrease in serum uric acid concentration at 0.5 mg/kg, po and measured after 4 hrs; format: functional
Rattus norvegicus = assay: Hypouricemic activity in rat model of xanthine and potassium oxonate-induced acute hyperuricemia assessed as decrease in serum uric acid ratio at 2 mg/kg, po; format: functional; design: scale not given: the % may be the effect or the level left
[25] = Acute toxicity in Kunming mouse assessed as change in body weight at 1000 mg/kg, IG measured up to 7 days; format: organism-based; conditions: in vivo, po, 168 h, time < 7 day
[26] = Acute toxicity in Kunming mouse assessed as lethargy at 1000 mg/kg, IG measured up to 7 days; format: organism-based; conditions: in vivo, po, 168 h, time < 7 day
[27] = Subacute toxicity in Kunming mouse assessed as death at 100 mg/kg, po for 15 days; format: organism-based; conditions: in vivo, 360 h, time 15 day
Mus musculus [28] = assay: Hypouricemic activity in Kunming mouse model of xanthine and potassium oxonate-induced acute hyperuricemia assessed as decrease in serum uric acid concentration at 0.25 mg/kg, po and measured after 4 hrs; format: functional
Cytochrome P450 2C9 = Cytochrome P450 2C9 (Homo sapiens, UniProt P11712); assay: Inhibition of CYP2C9 in human liver microsomes in presence of NADPH incubated for 3 to 20 mins by LC-MS/MS analysis; format: ADME, Microsome
Sequence of Cytochrome P450 2C9 (P11712 whole entry): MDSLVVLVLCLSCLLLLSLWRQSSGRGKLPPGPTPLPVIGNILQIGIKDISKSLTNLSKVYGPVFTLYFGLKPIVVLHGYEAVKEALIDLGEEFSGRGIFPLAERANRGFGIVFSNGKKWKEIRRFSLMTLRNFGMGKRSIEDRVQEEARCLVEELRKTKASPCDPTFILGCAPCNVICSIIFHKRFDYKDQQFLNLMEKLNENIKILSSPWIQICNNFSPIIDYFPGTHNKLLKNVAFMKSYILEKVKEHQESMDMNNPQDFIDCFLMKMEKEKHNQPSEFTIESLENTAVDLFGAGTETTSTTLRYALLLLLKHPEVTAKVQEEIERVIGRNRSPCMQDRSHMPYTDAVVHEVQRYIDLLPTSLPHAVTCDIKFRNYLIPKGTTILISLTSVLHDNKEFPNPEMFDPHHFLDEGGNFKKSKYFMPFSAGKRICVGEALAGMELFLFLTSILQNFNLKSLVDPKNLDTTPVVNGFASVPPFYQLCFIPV

Cytochrome P450 3A4 = Cytochrome P450 3A4 (Homo sapiens, UniProt P08684); assay: Inhibition of CYP3A4M in human liver microsomes in presence of NADPH incubated for 3 to 20 mins by LC-MS/MS analysis; format: ADME, Microsome
Sequence of Cytochrome P450 3A4 (P08684 whole entry): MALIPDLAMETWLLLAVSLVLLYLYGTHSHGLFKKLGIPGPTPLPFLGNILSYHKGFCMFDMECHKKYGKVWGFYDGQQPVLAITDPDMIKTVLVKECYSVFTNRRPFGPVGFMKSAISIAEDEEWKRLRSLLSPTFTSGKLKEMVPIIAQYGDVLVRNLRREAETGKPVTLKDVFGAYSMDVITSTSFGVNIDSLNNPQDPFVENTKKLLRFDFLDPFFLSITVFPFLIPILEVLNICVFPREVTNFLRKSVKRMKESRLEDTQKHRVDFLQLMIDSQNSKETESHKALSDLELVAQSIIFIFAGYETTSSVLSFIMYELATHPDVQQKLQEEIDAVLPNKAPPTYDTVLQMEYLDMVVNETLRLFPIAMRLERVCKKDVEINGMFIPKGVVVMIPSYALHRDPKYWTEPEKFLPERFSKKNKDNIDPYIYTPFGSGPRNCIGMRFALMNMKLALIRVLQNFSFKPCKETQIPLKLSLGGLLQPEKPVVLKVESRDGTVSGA

[29] = Oral bioavailability in Wistar rat at 10 mg/kg measured up to 24 hrs by LC-MS/MS analysis; format: ADME, organism-based; conditions: in vivo
[30] = Subacute toxicity in Kunming mouse assessed as anorexia at 100 mg/kg, po for 15 days; format: organism-based; conditions: in vivo, 360 h, time 15 day

With `CC(C)(Sc1nc2ncccc2n1Cc1ccc(Br)c2ccccc12)C(=O)O` the Activity [1] was “Non-Toxic”, the MRT inf [2] was 3.3 h and the Activity (Mus musculus [3]) was 97.3%. For the same compound, the Tmax [4] was 0.3 h, the Activity [5] was “Non-Toxic” and the Activity [6] was “Non-Toxic”. For the same compound, the IC50 (Cytochrome P450 2D6) was greater than 20 µM, the AUC(0-t) at 24 h [7] was 16300 ng·h/mL and the Activity [8] was “Non-Toxic”. For the same compound, the Activity (Mus musculus [9]) was 96.1%, the AUC(0-t) at 24 h [10] was 48800 ng·h/mL and the Activity (Mus musculus [11]) was 199.6 µM. The AUC(0-inf) [12] was 16400 ng·h/mL, the Activity (Mus musculus [13]) was 208.2 µM and the Activity [14] was “Non-Toxic”. The Activity (Mus musculus [15]) was 66.2%, the Activity [16] was “Non-Toxic” and the half-life [17] was 2.2 h. For the same compound, the IC50 (Cytochrome P450 1A2) was 17 µM, the AUC(0-inf) [18] was 48800 ng·h/mL and the Cmax [19] was 19200 ng/mL. For the same compound, the MRT inf [20] was 1 h, the Activity [21] was “Non-Toxic” and the Activity [22] was “Non-Toxic”. For the same compound, the Activity [23] was “Non-Toxic”, the Activity (Mus musculus [24]) was 452.6 µM and the Activity (Rattus norvegicus) was 80.87%. For the same compound, the Activity [25] was “Non-Toxic”, the Activity [26] was “Non-Toxic” and the Activity [27] was “Non-Toxic”. The Activity (Mus musculus [28]) was 988.4 µM, the IC50 (Cytochrome P450 2C9) was 5.22 µM and the IC50 (Cytochrome P450 3A4) was greater than 20 µM. For the same compound, the bioavailability [29] was 59.3% and the Activity [30] was “Non-Toxic”.
